In patent publication US10947222B2, “Indole derivatives useful as inhibitors of diacylglyceride O-acyltransferase 2” (Merck Sharp & Dohme Corp., priority 2016, dated 2021) one finds IC50 data, which are given here for 21 molecules.

As a reminder, the IC50 is the concentration that inhibits the measured activity by half. A lower IC50 goes with inhibition by little substance.

Sequence of human DGAT2 (hDGAT2) (Q96PD7 whole entry): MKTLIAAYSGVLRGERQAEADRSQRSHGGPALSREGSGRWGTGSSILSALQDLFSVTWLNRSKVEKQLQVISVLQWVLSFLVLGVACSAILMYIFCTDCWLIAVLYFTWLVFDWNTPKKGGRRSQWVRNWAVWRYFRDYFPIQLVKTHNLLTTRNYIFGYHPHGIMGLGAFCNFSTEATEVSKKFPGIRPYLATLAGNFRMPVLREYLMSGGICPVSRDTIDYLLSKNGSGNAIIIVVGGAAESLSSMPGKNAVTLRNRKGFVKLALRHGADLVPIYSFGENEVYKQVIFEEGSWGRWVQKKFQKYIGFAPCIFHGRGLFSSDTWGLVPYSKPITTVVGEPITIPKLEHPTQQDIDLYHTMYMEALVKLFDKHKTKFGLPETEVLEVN

This test addresses human DGAT2 (hDGAT2) (Homo sapiens (Human), UniProt Q96PD7). The test can be described thus: DGAT2 enzymatic activity assay (triolein formation, LC/MS/MS). The format is biochemical. Particulars: Sf-9 membrane prep expressing hDGAT2; 25 μM diolein, 10 μM oleoyl-CoA; triolein by LC/MS/MS. The protocol:
Sf-9 insect cells were maintained in Grace's insect cell culture medium with 10% heated-inactivated fetal bovine serum, 1% Pluronic F-68 and 0.14 μg/ml Kanamycine sulfate in Erlenmeyer flasks at 28° C. in a shaker incubator. After infection with untagged baculovirus expressing human DGAT2 (hDGAT2) at multiplicity of infection (MOI) 0.1 for 48 hours, cells were harvested. Cell pellets were suspended in buffer containing 10 mM Tris-HCl (pH 7.5), 1 mM EDTA (pH 8.0), 250 mM sucrose and Complete Protease Inhibitor Cocktail (Roche Diagnostics Corp., Indianapolis, Ill.), and sonicated on ice. Membrane fractions were isolated by ultracentrifugation (100,000×g pellet), resuspended in the same buffer, and frozen (−80° C.) for later use. The protein concentration was determined with the BCA Protein Assay kit (Pierce Biotechnology Inc., Rockford, Ill.). Expression of protein levels was analyzed by immunoblotting with goat polyclonal DGAT2 antibody C-15 and donkey anti-goat IgG HRP (Santa Cruz Biotechnology, Inc., Santa Cruz, Calif.) followed by detection with ECL reagent (GE Healthcare, Piscataway, N.J.).
LC/MS/MS analyses were performed using Thermal Fisher's LX4-TSQ Vantage system. This system consists of an Agilent binary high-performance liquid chromatography (HPLC) pumps and a TSQ Vantage triple quadrupole MS/MS instrument. For each sample, 2 μL samples from the top organic layer of in-plate liquid-liquid extraction were injected onto a Thermo Betabasic C4 column (2.1 mm×20 mm, 5 μm particle size). The samples were then eluted using the following conditions; mobile phase: methanol/water with 0.1% ammonium format=92/8 (v/v), flow rate: 1 mL/min, temperature: 25 C. Data was acquired in positive mode using a heated electrospray ionization (HESI) interface. The operational parameters for the TSQ Vantage MS/MS instrument were a spray voltage of 3000 V, capillary temperature of 280° C., vaporizer temperature 400° C., shealth gas 60 arbitrary unit, Aux gas 40 arbitrary units, S-lens 113 and collision gas 0.16 Pascals. […] (SRM) chromatograms of triolein (Q1:902.9>Q3:602.3) and internal standard (Q1:902.9>Q3:602.3) were collected for 40 sec. The peak area was integrated by Xcalibur Quan software. The ratio between the triolein generated in the reaction and spiked in internal standard was used to generate percentage inhibition and IC50 values. Compound percentage inhibition was calculated by the following formula: Inhibition %/=1−[(compound response−low control)/(high control−low control)]×100%. Potent compounds were titrated and IC50 were calculated by 4 parameter sigmoidal curve fitting formula.
DGAT2 activity was determined by measuring the amount of enzymatic product triolein (1,2,3-Tri(cis-9-octadecenoyl)glycerol) using the membrane prep mentioned above. The assay was carried out in deep well 384 plates in a final volume of 40 μL at rt. The assay mixture contained the following: assay buffer (100 mM Tris.Cl, pH 7.0, 20 mM MgCl2, 5% ethanol), 25 μM of diolein, 10 μM of oleoyl-CoA and 10 ng/μL of DGAT2 membrane.
`O=C(NC1CCS(=O)(=O)C1)c1ccc2c(-c3ccc(-n4cccn4)cc3)cn(-c3ccc(F)cc3)c2c1` (racemic) [Example 56, N-(1,1-dioxidotetrahydrothiophen-3-yl)-1-(4-fluorophenyl)-3-[4-(1H-pyrazol-1-yl)phenyl]-1H-indole-6-carboxamide (racemic)] returned an IC50 of 117 nM. In the case of `Cc1ccc(-c2cn(-c3ccc(F)cc3)c3cc(C(=O)NC4CCS(=O)(=O)C4)ccc23)cc1` (racemic) [Example 55, N-(1,1-dioxidotetrahydrothiophen-3-yl)-1-(4-fluorophenyl)-3-(4-methylphenyl)-1H-indole-6-carboxamide (racemic)] it was 696 nM; in that of `Cn1cc(-c2cn(-c3ccc(F)cc3)c3cc(C(=O)NC4CCS(=O)(=O)C4)ccc23)cn1` (racemic) [Example 54, N-(1,1-dioxidotetrahydrothiophen-3-yl)-1-(4-fluorophenyl)-3-(1-methyl-1H-pyrazol-4-yl)-1H-indole-6-carboxamide (racemic)], 345 nM; in that of `CC1(NC(=O)c2ccc3c(-c4ccccc4Cl)cn(-c4ncc(F)cn4)c3c2)CCS(=O)(=O)C1` (single isomer, unassigned; enantiomer a) [Example 15-A, 3-(2-chlorophenyl)-1-(5-fluoropyrimidin-2-yl)-N-(3-methyl-1,1-dioxidotetrahydrothiophen-3-yl)-1H-indole-6-carboxamide (enantiomer A, fast)], 78 nM. In turn, `Cc1c(-c2cccc(OC(F)F)c2)c2ccc(C(=O)NC3(C)CCS(=O)(=O)C3)cc2n1-c1ccc(F)cc1` (racemic) [Example 28, 3-(3-(difluoromethoxy)phenyl)-1-(4-fluorophenyl)-2-methyl-N-(3-methyl-1,1-dioxidotetrahydrothiophen-3-yl)-1H-indole-6-carboxamide (racemic)] showed an IC50 of 17 nM. The same measure for `O=C(NC1CCS(=O)(=O)C1)c1ccc2c(-c3cccc(OC(F)F)c3)cn(-c3ncc(F)cn3)c2c1` (single isomer, unassigned; enantiomer a) [Example 19-A, 3-(3-(difluoromethoxy)phenyl)-N-(1,1-dioxidotetrahydrothiophen-3-yl)-1-(5-fluoropyrimidin-2-yl)-1H-indole-6-carboxamide (enantiomer A)]: 1.6 nM. The same measure for `O=C(NC1CCS(=O)(=O)C1)c1ccc2c(-c3cccc(-n4cccn4)c3)cn(-c3ccc(F)cc3)c2c1` (racemic) [Example 38, N-(1,1-dioxidotetrahydrothiophen-3-yl)-1-(4-fluorophenyl)-3-[3-(1H-pyrazol-1-yl)phenyl]-1H-indole-6-carboxamide (racemic)]: 15 nM; for `O=C(NC1CCS(=O)(=O)C1)c1ccc2c(-c3cccc(C4CC4)c3)cn(-c3ccc(F)cc3)c2c1` (single isomer, unassigned; enantiomer a) [Example 26-A, 3-(3-Cyclopropylphenyl)-N-(1,1-dioxidotetrahydrothiophen-3-yl)-1-(4-fluorophenyl)-1H-indole-6-carboxamide (Enantiomer A)]: 2.9 nM. In the case of `Cc1noc(C)c1-c1cn(-c2ccc(F)cc2)c2cc(C(=O)NC3CCS(=O)(=O)C3)ccc12` (racemic) [Example 53, 3-(3,5-dimethylisoxazol-4-yl)-N-(1,1-dioxidotetrahydrothiophen-3-yl)-1-(4-fluorophenyl)-1H-indole-6-carboxamide (racemic)] it was 502 nM.

Take `COCC(C)NC(=O)c1ccc2c(-c3ccccc3Cl)cn(-c3ccc(F)cc3)c2c1` (racemic) [Example 3, 3-(2-chlorophenyl)-1-(4-fluorophenyl)-N-(1-methoxypropan-2-yl)-1H-indole-6-carboxamide (racemic)]: inhibition was half-maximal at 344 nM (IC50). The same measure for `COC(=O)c1cccc(-c2cn(-c3ccc(F)cc3)c3cc(C(=O)NC4CCS(=O)(=O)C4)ccc23)c1` (racemic) [Example 32, methyl 3-{6-[(1,1-dioxidotetrahydrothiophen-3-yl)carbamoyl]-1-(4-fluorophenyl)-1H-indol-3-yl}benzoate (racemic)]: 3.2 nM; for `CC1(NC(=O)c2ccc3c(-c4ccccc4Cl)cn(-c4ccc(F)cn4)c3c2)CCS(=O)(=O)C1` (single isomer, unassigned; enantiomer b) [Example 14-B, 3-(2-chlorophenyl)-1-(5-fluoropyridin-2-yl)-N-(3-methyl-1,1-dioxidotetrahydrothiophen-3-yl)-1H-indole-6-carboxamide (Enantiomer B, Slow)]: 9.8 nM; for `O=C(NC1CCS(=O)(=O)C1)c1ccc2c(-c3cccc(C4CC4)c3)cn(-c3ccc(F)cc3)c2c1` (racemic) [Example 46, 3-(3-cyclopropylphenyl)-N-(1,1-dioxidotetrahydrothiophen-3-yl)-1-(4-fluorophenyl)-1H-indole-6-carboxamide (racemic)]: 2.1 nM. The same measure for `O=C(NC1CCS(=O)(=O)C1)c1ccc2c(-c3ccccc3F)cn(-c3ccc(F)cc3)c2c1` (racemic) [Example 40, N-(1,1-dioxidotetrahydrothiophen-3-yl)-3-(2-fluorophenyl)-1-(4-fluorophenyl)-1H-indole-6-carboxamide (racemic)]: 26 nM; for `O=C(NC1CCS(=O)(=O)C1)c1ccc2c(-c3ccc(OC(F)F)cc3)cn(-c3ccc(F)cc3)c2c1` (racemic) [Example 57, 3-[4-(difluoromethoxy)phenyl]-N-(1,1-dioxidotetrahydrothiophen-3-yl)-1-(4-fluorophenyl)-1H-indole-6-carboxamide (racemic)]: 562 nM. In the case of `CC1(NC(=O)c2ccc3c(-c4cccc(OC(F)F)c4)cn(-c4ccc(F)cn4)c3c2)CCS(=O)(=O)C1` (single isomer, unassigned; enantiomer b) [Example 10-B, 3-(3-(difluoromethoxy)phenyl)-1-(5-fluoropyridin-2-yl)-N-(3-methyl-1,1-dioxidotetrahydrothiophen-3-yl)-1H-indole-6-carboxamide (enantiomer B)] it was 1 nM; in that of `CC1(NC(=O)c2ccc3c(-c4ccccc4Cl)cn(-c4ccc(F)cc4)c3c2)CCS(=O)(=O)C1` (single isomer, unassigned; enantiomer b) [Example 1-B, 3-(2-chlorophenyl)-1-(4-fluorophenyl)-N-(3-methyl-1,1-dioxidotetrahydrothiophen-3-yl)-1H-indole-6-carboxamide (Enantiomer B, slow)], 6.6 nM. `CC1(NC(=O)c2ccc3c(-c4cncc(OC(F)F)c4)cn(-c4ccc(F)cc4)c3c2)CCS(=O)(=O)C1` (racemic) [Example 25, 3-(5-(difluoromethoxy)pyridin-3-yl)-1-(4-fluorophenyl)-N-(3-methyl-1,1-dioxidotetrahydrothiophen-3-yl)-1H-indole-6-carboxamide (racemic)] showed an IC50 of 0.77 nM. In the case of `O=C(NC1CCS(=O)(=O)C1)c1ccc2c(-c3cccc(-c4ccccc4)c3)cn(-c3ccc(F)cc3)c2c1` (racemic) [Example 36, 3-biphenyl-3-yl-N-(1,1-dioxidotetrahydrothiophen-3-yl)-1-(4-fluorophenyl)-1H-indole-6-carboxamide (racemic)] it was 61 nM; in that of `CC1(NC(=O)c2ccc3c(-c4ccccc4Cl)cn(-c4ccc(F)cn4)c3c2)CCS(=O)(=O)C1` (single isomer, unassigned; enantiomer a) [Example 14-A, 3-(2-chlorophenyl)-1-(5-fluoropyridin-2-yl)-N-(3-methyl-1,1-dioxidotetrahydrothiophen-3-yl)-1H-indole-6-carboxamide (Enantiomer A, Fast)], 16 nM.

Molecule `O=C(NC1CCS(=O)(=O)C1)c1ccc2c(-c3cccc(F)c3)cn(-c3ccc(F)cc3)c2c1` (racemic) [Example 35, N-(1,1-dioxidotetrahydrothiophen-3-yl)-3-(3-fluorophenyl)-1-(4-fluorophenyl)-1H-indole-6-carboxamide (racemic)] showed an IC50 of 101 nM.
